This note sets out measurements from patent publication US6140363A, “Use of rosmarinic acid and derivatives thereof as an immunosuppressant or an inhibitor of SH2-mediated processes” (Mogam Biotechnology Research Institute, priority 1998, dated 2000).

“Also recorded” adds a separate entry of the source. Where two headings read alike, the source gives them in different places.

Series [1] deals with DNFB-induced contact hypersensitivity. The series can be described thus: contact hypersensitivity response to DNFB, ear thickness. The note with it: intramuscular, 6 consecutive days during induction phase; rosmarinic acid 5-50 mg/kg/day. The series is classed as in vivo, Balb/c female mice. Here is the method: In vivo test procedure evaluating the immunosuppressive activity was performed using contact hypersensitivity response to DNEB (2,4-dinitroflourobenzene). […] This is an antigen-specific T cell-mediated inflammatory response that represents delayed-type hypersensitivity (DTH) reactions seen in both humans and other mammals. The contact sensitivity animal model is used routinely in many laboratories for pharmacological screening of anti-inflammatory agents and agents for the treatment of autoimmune diseases. […] The procedure is summarized as following. Balb/c female mice were used at 8 weeks of age. Twenty μl of 0.5% DNFB (Sigma Chemical Co.) in 4:1 diluted acetone: olive oil (Sigma Chemical Co.) was painted on each shaved abdominal skin for 2 successive days. Four days later, the mice were challenged by applying 10 μl of 0.2% DNFB in the same vehicle to each side of each ear. Cydosporin A and rosmarinic acid were treated through intramuscular administration at the indicated doses from 0 to 5 day. Ear thickness was measured using engineer's micrometer (Mitutoyo Co. Mfg. Ltd., Tokyo) 24 h after postchallenge.

The subject of series [2] is IL-2 gene expression in Jurkat T cells. The series can be described thus: TCR stimulation-induced IL-2 gene expression, IL-2-luciferase reporter system. The series is classed as cell-based. The note with it: 8 μM, 30 min prior to T cell activation. The method, then: The effects of rosmarinic acid and derivatives thereof on the level of IL-2 gene expression were tested by using the IL-2-luciferase reporter system, in which cultured cells were transfected with a reporter plasmid. The plasmid was constructed by fusion of the IL-2 promoter sequence with the structural gene of luciferase. […] Cells were activated by incubation for 14 h on a 35 mm dish coated with 5 μg/ml anti-CD3 antibody (UCHT1, Pharmingen) and/or anti-CD4 antibody (RPA-T4, Pharmingen) and then harvested. For PMA plus Iononycin stimulation, 5 ng/ml of PMA and 500 ng/ml of lonomycin were added to the culture media and incubated for 14 h. Luciferase activity was determined three times in duplicate for each experiment with a Berthold luminometer LB953.

Series [3] concerns SPF SD type rat. The series can be described thus: parenteral administration test for acute toxicity. In kind it is in vivo. An excerpt: Acute toxicity was examined using 6week-old SPF SD type rat. As liposomal form, I g/kg of rosmarinic acid, rosmarinyl isopropyl ester, rosmarinyl ethyl ester, (S)-rosmarinyl bis(tert-butyldimethylsilyl)ether or (S)-rosmarinic acid was intramuscularly injected into two […] per experimental group.

For series [4], the target named is T1, Lck SH2 domain (Homo sapiens, UniProt P06239).
T1 construct: Lck SH2 domain expressed and purified as a fusion protein with Glutathione-S-transferase; made in house
The series can be described thus: in vitro binding between Lck SH2 domain (GST fusion) and biotinylated phosphotyrosyl peptide. An excerpt:
A novel screening system was developed in the present invention to screen a substance inhibiting the interaction between Lck SH2 domain and its ligand. In the binding assay, Lck SH2 domain expressed and purified as a fusion protein with Glutathione-S-transferase (GSI) were covalently attached to 96-well microtitre plates through amide bond formation. The immobilized proteins were subsequently allowed to bind biotinylated phosphotyrosine (Y)-containing synthetic peptide (biotin-[…]pYEEIPI) known as a high affinity ligand for the Lck SH2 domain.
For attachment to 96-well microtitre plate, 1 μM of purified fusion protein (GST-Lck SH2) was reacted for 2 hours at room temperature. Added to the binding assay were 1 μM of the biotinylated synthetic peptide (the ligand of Lck SH2 domain) and a candidate for the inhibitor. The candidates were thousands of natural products including various kinds of Streptoryces, fungi and herbs extract. Binding reaction was performed for 2 hours at room temperature, allowing the competitive inhibition of the binding between GST-Lck SH2 and the peptide ligand. Then peroxidase-conjugated streptavidin (Pierce, USA) was added into the mixture so that added conjugates can be bound to biotinylated peptide. After unbound conjugates were washed, coloring reaction was performed to measure the activity of immobilized peroxidase, or the binding activity of the peptide to SH2 domain in the presence of the candidate added. More particularly, the coloring reaction was initiated by adding 3,3,5,5-tetramethyl benzidine (substrate) to the reaction mixture. After 30 minutes, the reaction was stopped by adding 0.8M sulfuric acid, and immediately brought to the spectrophotometry of measuring absorbance at 450 nm.
Various concentrations (0.03~300 μg/ml) of rosmarinic acid solution, which was isolated from Prunella vulgaris or derivatives thereof, were added to the protein-coated micro-well mixed with phosphopeptide solution. The binding of biotiyated pY peptides was detected by the streptavidin-conjugated horseradish peroxidase (HRP).

Series [5] deals with C57BL/6 tail-skin graft on Balb/c recipient mice. The series can be described thus: skin allograft rejection, survival time of skin graft. The series is classed as in vivo. Here is the method: In vivo procedure evaluated the survival time of a skin graft.
Experimental allograft rejection was performed by grafting allogeneic C57BL/6 (H-2b) mouse tail-skin onto Balb/c (H-2d) recipient mice. Rosmarinic acid and derivative thereof were administered intramuscularly from the day of the transplantation until rejection. […] Full-thickness donor (C57BL/6) tail skin grafts (square pieces 2.0×2.0 cm) were transplanted onto the lateral thorax of recipient mice (Balb/C) and covered with sterile bactericidal gauze. The entire chest was then wrapped with an elastic bandage. […] Skin graft were monitored daily after the removal of the bandage on day 6. Rejection was defined as more than 90% necrosis of the graft epithelium.

The subject of series [6] is Jurkat cells. The series can be described thus: intracellular calcium signaling activated by anti-CD3 and anti-CD4 antibodies (Fura-2/AM). In kind it is cell-based. The note with it: 0.5-50 μg for 10 minutes, then anti-CD3 and anti-CD4 antibodies. Here is the method: Fura-2/AM (Calbiochem, San Diego, Calif., USA), a fluorescent indicator of intracellular calcium, was loaded into Jurkat cells, and various amounts (0.5 μg, 1 μg, 10 μg, 50 μg) of rosmarinic acid, isolated from Prunella vulgaris, was treated to the cells for 10 minutes. The cells were treated with anti-CD3 and anti-CD4 antibodies, and then the fluctuation of intracellular calcium level was recorded by the amount of fluorescence emitted from the cells.

For series [7], the system named is IL-1β, IL-2, IL-4, IL-6 and IFN-γ mRNA. The series can be described thus: cytokine mRNA in renal allografts, semi-quantitative RT-PCR. In kind it is in vivo, mice. The following applies: renal allograft day 7, i.m. daily 7 days, rosmarinic acid 25, Cyclosporin A 50 mg/kg/day. An excerpt:
Balb/c recipients transplanted from C57BL/6 donor were killed at 7 day after the subcapsular kidney transplantation. Renal allografts were harvested and total cellular RNA was extracted and analyzed for the expression of various cytokine mRNA. Using a serniquantitative PCR method, we temporally analyzed mRNA levels of IL-1β, IL-2, IL-4, IL-6 and IFN-γ.
The cytokine levels of PCR products were normalized by β-actin mRNA used as a control.
Kidney fragments (C57BL/6) were transplanted to allogeneic mice (Balb/C) using subcapsular kidney transplantation technique.
Total RNA from the grafts was isolated using TRIZOL® LS Reagent (Life Technologies), incubated at room temperature for 15 min after addition of chloroform, extracted with phenol/chloroform, and precipitated with isopropanol. Isolated total RNA was then quantitated spectrophotometrically. Total RNA from the graft (1 μg) was performed using Titan™ One Tube RT-PCR System (BM) according to the manufacture's protocol. The PCR was done in a 50 μl volume containing 1× RT-PCR buffer with Mg^2+, 0.2 mM each dNTP(dATP, dGTP, dCTP and dTTP), 10U RNase inhibitor, enzyme mix (AMV and Expand™ High Fidelity PCR-System),5 mM DTT solution and 0.4 μM appropriate primer pair. Primer sequences for IL-2, IFN-γ, IL-4, IL-6, IL-1β and β-actin were obtained from previous reports. […] The number of amplification cycles was 25. An aliquot (15 μl) of the PCR product was electrophoresed on 2% agarose gel, and amplified DNA fragments were stained with ethidium bromide.

Setting [8] is: 1 g/kg intramuscular, liposomal form.
Where [9] appears, read: GST-Lck SH2, 1 μM biotinylated pY peptide, 0.03~300 μg/ml tested, read-out: half-maximal inhibitory concentration (IC50) of binding to Lck SH2 domain (converted).

T1 sequence (P06239 127-224 limits assumed): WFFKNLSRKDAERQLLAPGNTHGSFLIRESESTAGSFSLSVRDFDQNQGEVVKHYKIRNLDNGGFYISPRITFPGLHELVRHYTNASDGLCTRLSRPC

In the case of `CC(C)(C)[Si](C)(C)Oc1ccc(/C=C/C(=O)O[C@@H](Cc2ccc(O)c(O)c2)C(=O)O)cc1O[Si](C)(C)C(C)(C)C` [(S)-Rosmarinyl bis(tert-butyldimethylsilyl)ether], the “suppression of DNFB-induced contact hypersensitivity” value (“suppression” for short) in series [1] is listed as “dose-dependent suppression”. For the same compound, in series [2], the “inhibition of TCR-induced IL-2 gene expression (luciferase activity)” value (from here on “inhibition”) was “inhibited as much as rosmarinic acid”. For the same compound, in series [3] (setting [8]), the “acute toxic effect (clinic symptom, weights, blood test, autopsy)” value (“acute toxic effect” for short) is listed as “did not elicit any toxic effect” and the “survival after acute dose” value is reported as “all tested animals were survived”. Moreover, the IC50 in series [4] (read-out: half-maximal inhibitory concentration (IC50) of binding to Lck SH2 domain, GST-Lck SH2, 1 μM biotinylated pY peptide, 0.03~300 μg/ml tested) was 22.1 µM. In addition, the “MST ± SD” value in series [5] (15 mg/kg/day i.m.) is 13.2 ± 1.6 days.
In the case of `O=C(/C=C/c1ccc(O)c(O)c1)O[C@@H](Cc1ccc(O)c(O)c1)C(=O)O` [(S)-rosmarinic acid], the “suppression” value in series [1] is listed as “dose-dependent suppression”. In series [2], the “inhibition” value was “inhibited as much as rosmarinic acid”. Further, in series [3] (setting [8]), the “acute toxic effect” value is recorded as “did not elicit any toxic effect” and the “survival after acute dose” value is listed as “all tested animals were survived”. This compound gave an IC50 in series [4] of 27.8 µM. For the same compound, the “MST ± SD” value in series [5] (15 mg/kg/day i.m.) is 14.8 ± 1.5 days.
Regarding `O=C(/C=C/c1ccc(O)c(O)c1)OC(Cc1ccc(O)c(O)c1)C(=O)O` (centres unmarked) [Rosmarinic acid, rosmarinic acid], the “inhibitory effect on intracellular calcium level” value in series [6] is on record as “dose-dependent inhibitory effect”. The “suppression” value in series [1] was “dose-dependently suppressed”. Moreover, the “inhibition” value in series [2] is listed as “more efficiently than other immunosuppressants did”. Further, in series [3] (setting [8]), the “acute toxic effect” value is listed as “did not elicit any toxic effect” and the “survival after acute dose” value is “all tested animals were survived”. The compound also gave an IC50 in series [4] of 8.33 µM. For the same compound, in series [7], the “IFN-γ mRNA transcription in allograft transplants” value is on record as “markedly inhibited”. In addition, in series [7] (50 mg/kg/day), the “IL-1β mRNA transcription in allograft transplants” value is “markedly inhibited; also recorded: more potent activity than that of Cyclosporin A”, the “IL-2 mRNA transcription in allograft transplants” value is reported as “markedly inhibited; also recorded: more potent activity than that of Cyclosporin A”, the “IL-4 mRNA transcription in allograft transplants” value is “markedly inhibited; also recorded: significantly reduced” and the “IL-6 mRNA transcription in allograft transplants” value is recorded as “markedly inhibited; also recorded: significantly reduced”. The “MST ± SD” value in series [5] (15 mg/kg/day i.m.) is on record as 14.0 ± 1.0 days. Also, in series [5] (15 mg/kg/day i.m., listed as rosmarinic acid), the “MST ± SD” value amounted to 14.0 days. The “MST ± SD” value in series [5] (25 mg/kg/day i.m.) was found to be 18.8 ± 3.6 days.
On to `CCOC(=O)C(Cc1ccc(O)c(O)c1)OC(=O)/C=C/c1ccc(O)c(O)c1` (centres unmarked) [Rosmarinyl ethyl ester], for which the “suppression” value in series [1] is “dose-dependent suppression”. Also, the “inhibition” value in series [2] is “inhibited as much as rosmarinic acid”. Besides, in series [3] (setting [8]), the “acute toxic effect” value is given as “did not elicit any toxic effect”. Besides, the “survival after acute dose” value in series [3] (in vivo) is on record as “all tested animals were survived”. In series [4] (setting [9]), the IC50 was 10.3 µM. The “MST ± SD” value in series [5] (15 mg/kg/day i.m.) was found to be 14.4 ± 1.8 days.
Regarding `CC(C)OC(=O)C(Cc1ccc(O)c(O)c1)OC(=O)/C=C/c1ccc(O)c(O)c1` (centres unmarked) [Rosmarinyl isopropyl ester], the “suppression” value in series [1] is on record as “dose-dependent suppression”. In series [2], the “inhibition” value was “inhibited as much as rosmarinic acid”. The “acute toxic effect” value in series [3] (setting [8]) is “did not elicit any toxic effect”. Further, the “survival after acute dose” value in series [3] (in vivo) is reported as “all tested animals were survived”. In series [4] (setting [9]), the IC50 is 2.49 µM. The “MST ± SD” value in series [5] (15 mg/kg/day i.m.) came out at 14.2 ± 1.8 days.
